Like-named read-outs stand apart in the source and are kept apart here.
Tests used:
[1] = logP by reversed-phase HPLC (LC-MS), neutral range; format: physicochemical; details: c18 hplc, ammonium bicarbonate/acetonitrile; pH 7.8, 0,001 molar aqueous Ammoniumhydrogencarbonat / Acetonitril, C 18, 55°C
Procedure: Die Messung der logP Werte erfolgt gemäß EEC Directive 79/831 Annex V.A8 durch HPLC (High Performance Liquid Chromatography) an einer Phasenumkehrsäule (C 18). Temperatur: 55°C. Die Bestimmung mit der LC-MS im sauren Bereich erfolgt bei pH 2,7 mit 0,1 % wässriger Ameisensäure und Acetonitril (enthält 0,1% Ameisensäure) als Eluenten; linearer Gradient von 10% Acetonitril bis 95% Acetonitril. In der Tabelle logP (HCOOH) genannt.
Die Bestimmung mit der LC-MS im neutralen Bereich erfolgt bei pH 7.8 mit 0,001 molarer wässriger Ammoniumhydrogencarbonat-Lösung und Acetonitril als Eluenten; linearer Gradient von 10 % Acetonitril bis 95 % Acetonitril. In der Tabelle logP (neutral) genannt.
Die Eichung erfolgt mit unverzweigten Alkan-2-onen (mit 3 bis 16 Kohlenstoffatomen), deren logP-Werte bekannt sind (Bestimmung der logP-Werte anhand der Retentionszeiten durch lineare Interpolation zwischen zwei aufeinander folgenden Alkanonen).

Spodoptera frugiperda = Spodoptera frugiperda spray test (maize leaf discs, caterpillars); format: in vivo; details: foliar, 168 h, Aufwandmenge 500g/ha, after 7 days, read-out: Wirkung
Description: (§1) Zur Herstellung einer zweckmäßigen Wirkstoffzubereitung löst man 1 Gewichtsteil Wirkstoff mit den angegebenen Gewichtsteilen Lösungsmittel und füllt mit Wasser, welches eine Emulgatorkonzentration von 1000 ppm enthält, bis zum Erreichen der gewünschten Konzentration auf. Zur Herstellung weiterer Testkonzentrationen wird mit emulgatorhaltigem Wasser verdünnt.
Maisblattscheiben (Zea mays) werden mit einer Wirkstoffzubereitung der gewünschten Konzentration gespritzt und nach dem Abtrocknen mit Raupen des Heerwurms (Spodoptera frugiperda) besetzt.
Nach 7 Tagen wird die Wirkung in % bestimmt. Dabei bedeutet 100 %, dass alle Raupen abgetötet wurden; 0 % bedeutet, dass keine Raupe abgetötet wurde.

Phaedon cochleariae = Phaedon cochleariae spray test (Chinese cabbage leaf discs, larvae); format: in vivo; details: foliar, 168 h, read-out: Wirkung
Description: as §1
Chinakohlblattscheiben (Brassica pekinensis) werden mit einer Wirkstoffzubereitung der gewünschten Konzentration gespritzt und nach dem Abtrocknen mit Larven des Meerrettichblattkäfers (Phaedon cochleariae) besetzt.
Nach 7 Tagen wird die Wirkung in % bestimmt. Dabei bedeutet 100 %, dass alle Käferlarven abgetötet wurden; 0 % bedeutet, dass keine Käferlarven abgetötet wurden.

Ctenocephalides felis = Ctenocephalides felis oral test (feeding on treated citrated cattle blood); format: in vivo; details: 48 h, Aufwandmenge 100ppm, after 2 days, read-out: Wirkung (Abtötung)
Procedure: Zwecks Herstellung einer zweckmäßigen Wirkstoffzubereitung vermischt man 10 mg Wirkstoff mit 0,5 ml Dimethylsulfoxid. Durch Verdünnen mit citriertem Rinderblut erhält man die gewünschte Konzentration.
Ca. 20 nüchterne adulte Katzenflöhe (Ctenocephalides felis) werden in eine Kammer eingesetzt, die oben und unten mit Gaze verschlossen ist. Auf die Kammer wird ein Metallzylinder gestellt, dessen Unterseite mit Parafilm verschlossen ist. Der Zylinder enthält die Blut-Wirkstoffzubereitung, die von den Flöhen durch die Parafilmmembran aufgenommen werden kann.
Nach 2 Tagen wird die Abtötung in % bestimmt. Dabei bedeutet 100 %, dass alle Flöhe abgetötet wurden; 0 % bedeutet, dass keiner der Flöhe abgetötet wurde.

Tetranychus urticae = Tetranychus urticae spray test, OP-resistant (bean leaf discs); format: in vivo; details: foliar, 144 h, read-out: Wirkung
Description: as §1
Bohnenblattscheiben (Phaseolus vulgaris), die von allen Stadien der Gemeinen Spinnmilbe (Tetranychus urticae) befallen sind, werden mit einer Wirkstoffzubereitung der gewünschten Konzentration gespritzt.
Nach 6 Tagen wird die Wirkung in % bestimmt. Dabei bedeutet 100 %, dass alle Spinnmilben abgetötet wurden; 0 % bedeutet, dass keine Spinnmilben abgetötet wurden.

Structure (SMILES) | chromatographic logP [1] | mortality at 500 g/ha (Spodoptera frugiperda) | further results
CN(C(=O)C1CC1)c1cc(-c2ccc(OC(F)(F)F)cc2)cc(NC(=O)C2CC2)n1 [I-31, N-{6-[(Cyclopropylcarbonyl)amino]-4-[4-(trifluormethoxy)phenyl]pyridin-2-yl}-N-methylcyclopropancarboxamid] | 3.66 |  | 
O=C(Nc1cc(-c2ccc(C(F)(F)C(F)(F)F)c(F)c2)cc(NC(=O)C2CC2)n1)C1CC1 [I-035, N,N'-{4-[3-Fluor-4-(pentafluorethyl)phenyl]pyridin-2,6-diyl}dicyclopropancarboxamid] | 4.06 | 100% | mortality at 500 g/ha (Phaedon cochleariae): 100%
CC(C)C(=O)Nc1cc(N)cc(-c2ccc(C(F)(F)C(F)(F)F)c(F)c2)c1 [N-[5-Amino-3'-fluor-4'-(pentafluorethyl)biphenyl-3-yl]-2-methylpropanamid] | 3.32 |  | 
COC(=O)N(C(=O)C1CC1)c1cc(-c2ccc(OC(F)(F)F)cc2)cc(N(C(=O)OC)C(=O)C2CC2)n1 [I-037, Dimethyl-{4-[4-(trifluormethoxy)phenyl]pyridin-2,6-diyl}bis[(cyclopropylcarbonyl)carbamat]] | 3.73 |  | mortality at 500 g/ha (Phaedon cochleariae; Aufwandmenge 500g/ha, after 7 days): 100%
O=C(Nc1cc(-c2ccc(OC(F)(F)F)cc2)cc(NC(=S)C2CC2)n1)C1CC1 [I-033, N-{6-[(Cyclopropylcarbonothioyl)amino]-4-[4-(trifluormethoxy)phenyl]pyridin-2-yl}cyclopropancarboxamid] | 4.44 | 100% | 
CCN(C(=O)C1CC1)c1cc(-c2ccc(OC(F)(F)F)cc2)cc(N(CC)C(=O)C2CC2)n1 [I-29, N,N'-{4-[4-(Trifluormethoxy)phenyl]pyridin-2,6-diyl}bis(N-ethylcyclopropancarboxamid)] | 4.05 |  | 
Nc1cc(-c2ccc(OC(F)(F)F)cc2)cc(NC(=O)C2CC2)n1 [N-{6-Amino-4-[4-(trifluormethoxy)phenyl]pyridin-2-yl}cyclopropancarboxamid] | 2.79 |  | 
O=C(Nc1cc(-c2ccc(OC(F)(F)F)cc2)cc(NC(=O)C2(F)CC2)n1)C1CC1 [I-012, N-{6-[(Cyclopropylcarbonyl)amino]-4-[4-(trifluormethoxy)phenyl]pyridin-2-yl}-1-fluorcyclopropancarboxamid] | 3.88 | 100% | mortality at 100 µg/mL (Ctenocephalides felis): 95%; mortality at 500 g/ha (Phaedon cochleariae): 100%
CC1(C)OB(c2cc(NC(=O)C3CC3)nc(NC(=O)C3CC3)c2)OC1(C)C [N,N'-[4-(4,4,5,5-Tetramethyl-1,3,2-dioxaborolan-2-yl)pyridin-2,6-diyl]dicyclopropancarboxamid] | 0.89 |  | 
FC(F)(F)Oc1ccc(-c2cc(NC(=S)C3CC3)nc(NC(=S)C3CC3)c2)cc1 [I-032, N,N'-{4-[4-(Trifluormethoxy)phenyl]pyridin-2,6-diyl}dicyclopropancarbothioamid] | 4.98 | 100% | 
O=C(Nc1cc(Br)cc(NC(=O)C2CC2)n1)C1CC1 [N,N'-(4-Brompyridin-2,6-diyl)dicyclopropancarboxamid] | 2.35 |  | 
Nc1cc(Br)cc(NC(=O)C2CC2)n1 [N-(6-Amino-4-brompyridin-2-yl)cyclopropancarboxamid] | 1.61 |  | 
Nc1cc(Br)c(Cl)c(N)n1 [4-Brom-3-chlorpyridin-2,6-diamin] | 1.46 |  | 
CC1=CC1C(=O)Nc1cc(-c2ccc(OC(F)(F)F)cc2)cc(NC(=O)C2CC2)n1 (stereo not drawn) [I-034] |  |  | mortality at 500 g/ha (Tetranychus urticae; Aufwandmenge 500g/ha, after 6 days, OP-resistent): 90%
CC(C)(F)C(=O)Nc1cc(-c2ccc(OC(F)(F)F)cc2)cc(NC(=O)C2CC2)n1 [I-015] |  | 100% | mortality at 100 µg/mL (Ctenocephalides felis): 100%; mortality at 500 g/ha (Tetranychus urticae): 90%; mortality at 500 g/ha (Phaedon cochleariae): 100%
Nc1cc(N)cc(-c2ccc(C(F)(F)C(F)(F)F)c(F)c2)c1 [3'-Fluor-4'-(pentafluorethyl)biphenyl-3,5-diamin] | 2.83 |  | 

From patent EP3284739A1, “SUBSTITUTED (HET) ARYL COMPOUNDS AS PESTICIDES” (Bayer CropScience Aktiengesellschaft, priority 2017, dated 2018)
